# Results as given in patent publication US4518611A, “2-Furylbutyrolactone modulation of the immune system in mammals” (priority 1983, dated 1985).
# Like-named read-outs stand apart in the source and are kept apart here.
# Legend:
# [1] = system: spleen lymphocytes; settings: 7 days
# Protocol: (§1) The purpose of this assay is to challenge lymphocytes in microcultures with one or more polyclonal mitogens at concentrations that will induce mitogenesis within 72 hours of stimulation.
# (§2) In the mouse model, spleens are removed from different strains of mice and the spleen cells are teased free and suspended in RPMI-1640 tissue culture medium at a concentration of usually […]. These cells are dispensed at a concentration of 5.0×10^5 cells per microculture well in a 96 well flat bottom 96 well tissue culture plate. All testing of the compounds of this invention or mitogens are done in replicates of 10. The cells are then treated with PHA, Con-A, specific antigens, or buffer only. If in vitro testing is done, varying concentrations of the compounds of this invention or buffer only are added to the cells as well. After treatment with the mitogens and/or compounds of this invention, the cells are incubated for 72 hours. The response of these cells to mitogens and/or the compounds of this invention is assessed using ^14 C-thymidine labeling on the fourth day at a concentration of 0.01 μCi/well. The labeled cells are harvested using a lymphocyte harvestor and placed onto fibrous paper discs. A scintillation cocktail is added to vials containing the discs and the results are obtained using a LKB-liquid scintillation counter (Model 1216/Rackbeta II). The data is expressed as a ratio of the cpm of the mitogen stimulated group to the control (nonmitogen) treated group=lymphocyte stimulation index (LSI).
# (§3) The lymphocyte stimulation assay may be performed directly on spleen cells obtained from various strains of mice not treated with the compounds of this invention or on lymphocytes obtained from human […]. […] Alternatively, the mice may be treated in vivo with the compounds of this invention by intraperitoneal multi-dose schedules, followed by sacrifice and harvesting spleen lymphocytes. These cells are then tested for their response to polyclonal mitogens or specific antigens used to immunize the mice. In this system however, no additional compound is added to the in vitro lymphocyte stimulation assay system.
# Two strains of mice, C57BL/6 and BDF1 are treated for seven days with i.p. administration of either 25, 50, 100, 200, or 400 mg/kg of Cpd. 1 or just buffer. This is followed on the eighth day by a lymphocyte stimulation assay.
# [2] = system: spleen lymphocytes; settings: for Lymphocyte Stimulation Index, Control (no mitogen): 100 mg/kg i.p.; for effect on mitogen response (in words): 100 mg/kg
# Protocol: as §1, §2, §3
# Three month old mice of the SJL/J strain, which are T-cell deficient, are treated with i.p. administration of 100, 200, or 400 mg/kg of Cpd. 1 or just buffer for four days. This is followed by a lymphocyte stimulation assay.
# An in vivo lymphocyte stimulation assay was performed on SJL/J mice of different ages, either 2, 5, or 10 months. The mice received i.p. injections of either 100 mg/kg of Cpd. 1 or just buffer.
# [3] = system: FLC-745 target cells; test: MLTC assay of cytotoxic lymphocyte (CTL) activity, FLC-745 target cells; assay type: cell-based, mouse, DBA/2
# From the text: A mixed lymphocyte tumor culture (MLTC) immunoassay, used to determine the cytotoxic lymphocyte (CTL) activity employs lymphocytes from either immunized (sensitized) mice or DBA/2 tumor dormant state animals in various stages of the tumor dormant state (TDS). The assay employs L5178Y target cells labeled with ^51 Chromium and effector cells (sensitized lymphocytes) from the above-mentioned sources. Effector-target cell ratios will vary with different experimental conditions and may or may not include irradiated stimulator L5178Y cells. Results are expressed as % lysis of target cells based on ratio of cpm of test group over cpm of total release (maximum) both of which are corrected for spontaneous release of ^51 Cr. The assay can be performed as an 8 or 18 hour release assay.
# An MLTC assay is performed to assess the CTL activity and tumor target cell specificity of Cpd. 1. Tumor dormant spleen cells and normal spleen cells of DBA/2 mice are used as effector cells. Irradiated L5178Y cells are used as stimulator cells. ^51 Cr-labeled L5178Y cells and FLC-745 cells are used as target cells. The effector/target ratios studied are 100:1, 30:1 and 10:1.
# [4] = system: BSA antibody response
# From the text: The effect of the compounds of this invention on the immune response to specific antigens involves immunization of mice with specific antigens such as bovine serum albumin (BSA) or keyhole limpet hemocyanin (KLH). Following immunization, it is possible to assess the cell-mediated or humoral (antibody) immune response to these antigens by various methods:
# (2) Antibody response to soluble antigens such as BSA or KLH can be quantitated using a micro-ELISA solid phase heterogeneous immunoassay. The assay can be designed to quantitate class specific immunoglobulins (i.e., IgG or IgM).
# The cut-off for the titer was the highest dilution of mouse serum yielding on O.D.≤0.1 when read on the MR-600 Dynatech micro-ELISA reader.
# Mice of the C57BL/6 strain are given i.p. injections of either 50, 100, 200 or 400 mg/kg of Cpd. 1 or buffer for twelve days (days 1-12). An antigen, bovine serum albumin (BSA), is administered intraperitoneally with Freund's Complete Adjuvant (FCA) on days 1, 7 and 14. Blood samples are taken for assay of the antibody response on days 0, 5, 13, and 19.
structure (smiles),measurement,setting,value
"Cc1ccc(C2(O)C(=O)OC3C(O)COC32O)o1.Cc1ccc(C2(O)C(=O)OC3C(O)COC32O)o1.O=C1CCC(=O)O1 (stereo not shown) [Cpd. 1, 2-furylbutyrolactone:succinic anhydride]","Lymphocyte Stimulation Index, Con-A",[1]; 25 mg/kg i.p.,4.3
same,"Lymphocyte Stimulation Index, Control (buffer, pH 8.05)",[1]; 25 mg/kg i.p.,0.8
same,"Lymphocyte Stimulation Index, PHA",[1]; 25 mg/kg i.p.,13.8
same,"Lymphocyte Stimulation Index, Con-A",[1]; 50 mg/kg i.p.,21.6
same,"Lymphocyte Stimulation Index, Control (buffer, pH 8.05)",[1]; 50 mg/kg i.p.,0.9
same,"Lymphocyte Stimulation Index, PHA",[1]; 50 mg/kg i.p.,52.1
same,"Lymphocyte Stimulation Index, Con-A",[1]; 100 mg/kg i.p.,17.9
same,"Lymphocyte Stimulation Index, Control (buffer, pH 8.05)",[1]; 100 mg/kg i.p.,0.7
same,"Lymphocyte Stimulation Index, PHA",[1]; 100 mg/kg i.p.,48.7
same,"Lymphocyte Stimulation Index, Con-A",[1]; 200 mg/kg i.p.,2.9
same,"Lymphocyte Stimulation Index, Control (buffer, pH 8.05)",[1]; 200 mg/kg i.p.,0.8
same,"Lymphocyte Stimulation Index, PHA",[1]; 200 mg/kg i.p.,7.8
same,"Lymphocyte Stimulation Index, Con-A",[1]; 400 mg/kg i.p.,0.9
same,"Lymphocyte Stimulation Index, Control (buffer, pH 8.05)",[1]; 400 mg/kg i.p.,0.9
same,"Lymphocyte Stimulation Index, PHA",[1]; 400 mg/kg i.p.,1.1
same,"Lymphocyte Stimulation Index, Control (no mitogen)",[2]; age 2 months,2.3
same,"Lymphocyte Stimulation Index, Control (no mitogen)",[2]; age 5 months,1.9
same,"Lymphocyte Stimulation Index, Control (no mitogen)",[2]; age 10 months,2.1
same,effect on mitogen response (in words),[2]; age 2 months,decreased PHA versus increased Con-A response
same,effect on mitogen response (in words),[2]; age 5 months,depressed mitogenesis response to both PHA and Con-A
same,effect on mitogen response (in words),[2]; age 10 months,significant stimulation of both the PHA and Con-A mitogenic response
same,"Lymphocyte Stimulation Index, Con-A","[2]; 400 mg/kg i.p., four days, three month old",3.30
same,% Lysis,"[3]; E + D, E/T 10:1, TDS effectors, no stimulators",0.7%
same,% Lysis,"[3]; E + D, E/T 30:1, TDS effectors, no stimulators",4.6%
same,% Lysis,"[3]; E + D, E/T 100:1, TDS effectors, no stimulators",6.6%
same,% Lysis,"[3]; E + S + D, E/T 10:1, TDS effectors + stimulators",0.5%
same,% Lysis,"[3]; E + S + D, E/T 30:1, TDS effectors + stimulators",3.6%
same,enhancement of CTL activity (in words),"[3]; FLC-745 target, TDS effectors with stimulator cells",This effect is not observed in the FLC-745 target control system
same,% Lysis,"[3]; N + D, E/T 10:1, normal spleen cells, no stimulators",-3.5%
same,% Lysis,"[3]; N + D, E/T 30:1, normal spleen cells, no stimulators",0.9%
same,% Lysis,"[3]; N + S + D, E/T 10:1, normal spleen cells + stimulators",-1.1%
same,% Lysis,"[3]; N + S + D, E/T 30:1, normal spleen cells + stimulators",-0.8%
same,% Lysis,"[3]; N + S + D, E/T 100:1, normal spleen cells + stimulators",5.8%
same,Micro-ELISA Titer,"[4]; 50 mg/kg i.p., Day 5",N/R
same,Micro-ELISA Titer,"[4]; 50 mg/kg i.p., Prebleed",N/R
same,antibody titer versus control (in words),"[4]; 50 mg/kg, day 19",A slight increase of antibody titer over the control
same,Micro-ELISA Titer,"[4]; 100 mg/kg i.p., Day 5",N/R
same,Micro-ELISA Titer,"[4]; 100 mg/kg i.p., Prebleed",N/R
same,Micro-ELISA Titer,"[4]; 200 mg/kg i.p., Day 5",N/R
same,Micro-ELISA Titer,"[4]; 200 mg/kg i.p., Prebleed",N/R
same,Micro-ELISA Titer,"[4]; 400 mg/kg i.p., Day 5",N/R
same,Micro-ELISA Titer,"[4]; 400 mg/kg i.p., Prebleed",N/R
same,antibody response versus control (in words),"[4]; 400 mg/kg, day 19",the antibody responses to BSA are equal at the 0 mg/kg and 400 mg/kg dose
same,stimulation of antibody response (in words),"[4]; 50 and 100 mg/kg, day 13",only a slight amount of stimulation
same,increase over controls of antibody titer (fold),"[4]; 100 and 200 mg/kg, day 19",16 fold
same,stimulation of antibody response (fold),"[4]; 200 and 400 mg/kg, day 13",four-fold
